Reference: patent US5075288A, “Somnogenic fragment of interleukin-1β” (The University of Tennessee Research Corporation, priority 1990, dated 1991)
“Also recorded” adds a separate entry of the source. Residues, ends and D or L forms follow the SMILES beside them.

Experiments:
Murine D10 Cells = assay: T cell proliferation assay, [3H] thymidine incorporation in murine T cell line D10; type: cell-based, mouse
Experimental: Thymus glands were removed from 6-10 week old CD1 mice after mice had been sacrificed by cervical dislocation. Thymocytes were isolated by gently homogenizing the thymus glands in a dounce homogenizer. Thymocytes were suspended in RPMI 1640 containing 7.5% FCS and 5×10-^6 M 2-mercaptoethanol. Aliquots of the cell suspension (100 μl) were dispensed into wells of flat bottom microtiter plates (Linbro Plastics), and samples (50 μl) suspended in RPMI 1640 were added to appropriate wells. Plates were incubated at 37° C., 5% CO2, in a humidified atmosphere for 60 h, and wells were pulsed with [^3 H] thymidine (1 μCi, […]) for 12h. After the 12-h pulse, cells were harvested onto paper filter pads with a multiple-sample harvester, and thymocyte proliferation was determined by scintillation counting. In some experiments, the murine T cell line D10 was used instead of thymocytes as target cells using phytohemmagglutinin (1 μg/ml) as costimulant.

[1] = test system: male, New Zealand white pasteurella-free rabbits; assay: Rabbit sleep (EEG) and body temperature after ICV injection; type: in vivo; settings: for Colonic Temperature Start: at the time of injection; for Colonic Temperature End: end of 6-h recording session; for NREMS / REMS: six-hour recording period
Text: A lateral cerebral ventricular guide cannula, a thermistor, and stainless steel screw electroencephalographic (EEG) electrodes were surgically implanted into male, New Zealand white pasteurella-free rabbits (about 3.5 kg). EEG electrodes were placed over the frontal and parietal cortices A 50,000 ohm calibrated thermistor (Model 4018, Omega Engineering, Stamford, Conn.) was implanted over the parietal cortex to measure brain temperature (Tbr). Insulated leads from the screws and the thermistor were routed to an amphenol plug attached to the skull with dental acrylic (DUZ-ALL, Coralite Dental Products, Skokie, Ill.). The guide cannula was placed in the left lateral cerebral ventricle. A minimum of two weeks was allowed for recovery before the animals were habituated to the recording chambers (Hotpack 352600, Philadelphia, Pa.). Food and water were available ad libitum. Each recording chamber contained an electronic swivel (Stoelting, Chicago, Ill.) suspended by a shock-absorbing system. A flexible tether connected the swivel to the Amphenol connector on the rabbit's head, thus allowing freedom of movement. An accelerometer (Grass, SPAI, Quincy, Mass.) attached to the shock-absorbing system provided an indication of body movement. The cables from the swivel and the accelerometer were connected to Grass 7D polygraphs in an adjacent room. The polygraphs recorded EEG, Tbr, and body movement for each animal. The EEG for each rabbit was passed through band-pass filters with the 0.5-3.5 Hz (delta), 4.0-7.5 Hz (theta), 8.0-12.5 Hz (alpha), and 13.0-15.0 Hz (beta) frequency bands rectified and averaged for 1-min intervals by a Buxco model 24/32 data logger (Buxco Electronics, Sharon, Conn.). These values for 1-min periods were used to compute hourly averages. EEG amplitudes in the delta frequency band during 1-min epochs of NREMS for each of the six postinjection hours were also determined. The 10 samples of greatest magnitude in each hour were averaged for each rabbit during control and test NREM sleep periods. […] Tbr S were also recorded using a data logger (Acrosystems 400, Beverly, Mass.), with values for each rabbit sampled at 10-min intervals. NREM sleep and REM sleep were measured as a percent of time over a six-hour recording period. Colonic temperatures (Tco) were taken with a flexible thermistor (YSI, Inc., Yellow Springs, Ohio) at the time of injection and at the end of 6-h recording session. IL1 fragments were dissolved in appropriate volumes of artificial cerebrospinal fluid (aCSF) (2 mM KC1, 1.15 mM CaCl2, and 0.96 mM MgCl2 in pyrogen free saline, […] NaCl [Abbott, N. Chicago, Ill.] Hu-rIL1β was supplied in phosphate-buffered saline (PBS) (0.4 mg/ml). All substances were injected into a lateral cerebral ventricle (ICV). Injection volumes were 12-25 μl per rabbit; each injection lasted about 2 min. Animals were injected between 0900 and 1000 h. Control recordings were obtained from each animal after injection of vehicle (aCSF). After injections, animals were recorded from the next 6 h. Data from all experiments were analyzed with the SPSS^x Information System. Friedman's test for k-related samples was used to test for differences across the 6-h recording periods. If significant differences were indicated, the Wilcoxon matched-pairs signed-ranks test was used to identify the specific hours in which the differences occurred. An alpha level of P<0.05 was accepted as indicating significance.

Molecule: 199-228: synthetic fragment of IL1β, amino acids 199-228 (ESVDPKNYPKKKMEKRFVFNKIEINNKLEF; UniProt P01584 199-228, looked up, fragment) [Peptide 199-228]
- T cell proliferation (in words) (Murine D10 Cells; murine D10 cells (Table 2)): stimulated T cell proliferation
- [3H] Thymidine Incorporation, Murine D10 Cells (Murine D10 Cells; standard deviation in, phytohemmagglutinin 1 μg/ml as costimulant): 2799 (652) counts per minute
- Colonic Temperature Start ([1]; 25 μg ICV): 39.3 (0.1) °C
- Colonic Temperature End ([1]; 25 μg ICV): 39.4 (0.1) °C
- NREMS ([1]; 25 μg ICV): 50.9 (3.9) percent of time
- REMS ([1]; 25 μg ICV): 20.0 (1.2) percent of time
- somnogenic and pyrogenic activity: effect on sleep or Tbr (in words) ([1]; ICV, doses of Table 3): failed to alter sleep or Tbr

Molecule: CC[C@H](C)[C@H](NC(=O)[C@H](CCC(=O)O)NC(=O)[C@@H](NC(=O)[C@H](CCCCN)NC(=O)[C@H](CC(N)=O)NC(=O)[C@H](Cc1ccccc1)NC(=O)[C@@H](NC(=O)[C@H](Cc1ccccc1)NC(=O)[C@H](CCCNC(=N)N)NC(=O)[C@H](CCCCN)NC(=O)[C@H](CCC(=O)O)NC(=O)[C@H](CCSC)NC(=O)[C@H](CCCCN)NC(=O)[C@H](CCCCN)NC(=O)[C@@H](N)CCCCN)C(C)C)[C@@H](C)CC)C(=O)N[C@@H](CC(N)=O)C(=O)N[C@@H](CC(N)=O)C(=O)N[C@@H](CCCCN)C(=O)N[C@@H](CC(C)C)C(=O)N[C@@H](CCC(=O)O)C(=O)N[C@@H](Cc1ccccc1)C(=O)N[C@@H](CCC(=O)O)C(=O)N[C@@H](CO)C(=O)N[C@@H](C)C(=O)N[C@@H](CCC(N)=O)C(=O)N[C@@H](Cc1ccccc1)C(=O)N1CCC[C@H]1C(=O)N[C@@H](CC(N)=O)C(=O)N[C@@H](Cc1c[nH]c2ccccc12)C(=O)N[C@@H](Cc1ccc(O)cc1)C(=O)N[C@H](C(=O)N[C@@H](CO)C(=O)N[C@H](C(=O)O)[C@@H](C)O)[C@@H](C)CC [Peptide 208-240] (H-KKKMEKRFVFNKIEINNKLEFESAQFPNWYIST-OH)
- abnormal behavior after injection ([1]; 25 μg ICV): no appearance of abnormal behavior; also recorded: did not appear to induce abnormal behavior

Molecule: IL1β: Recombinant human IL1β prepared by Cistron Biotechnology, Incorporated
- Colonic Temperature Start ([1]; 5 ng ICV): 39.2 (0.0) °C
- Colonic Temperature End ([1]; 5 ng ICV): 40.0 (0.1) °C
- NREMS ([1]; 5 ng ICV): 53.3 (3.2) percent of time
- REMS ([1]; 5 ng ICV): 4.4 (0.8) percent of time
- Colonic Temperature Start ([1]; 20 ng ICV): 39.3 (0.1) °C
- Colonic Temperature End ([1]; 20 ng ICV): 41.0 (0.3) °C
- NREMS ([1]; 20 ng ICV): 61.5 (4.3) percent of time
- REMS ([1]; 20 ng ICV): 2.1 (0.6) percent of time
